Source: patent publication US20220125839A1, “COMBINATION OF T-CELL THERAPY AND TARGETED THERAPY FOR TREATING THERAPY-RESISTANT MELANOMA WITH MUTATIONS IN THE BRAF GENE” (H. LEE MOFFITT CANCER CENTER AND RESEARCH INSTITUTE, INC., priority 2019, published 2022)

Legend:
Assay type in all cases: cell-based, human
WM983B-M6PR-KO cells [1] = assay: Granzyme B (GrzB) uptake by WM983B-M6PR-KO cells; conditions: WM983B-M6PR-KO (absence of M6PR); overnight, then inactive GrzB 1 hour
Method: Cells were then stained with Aqua dead cell staining kit (Thermo Fischer Scientific) for 15 min at 4° C. fixed in fixation buffer (BD Cytofix/Cytoperm; Cat. no. 51-2090). Granzyme B antibody (Cat. no. 561142) or its isotype control (BD Bioscience; Cat. no. 555749) were used. Stained cells were run on LSR14. Data was analyzed by FlowJo software (Tree Star).
To investigate if M6PR has a direct role in the increased uptake of GrzB induced by PLX4720, we generated a WM983B-M6PR-KO cell line lacking M6PR expression, using Crispr/Cas9 technology. Deletion of M6PR was confirmed by western blotting (FIG. 8A) and flow cytometry (FIG. 8B). WM983B and WM983B-M6PR-KO cells were cultured with DMSO or different concentrations of PLX4720. […] To test the sensitivity of WM983B cells to CTLs, we expanded TILs isolated from a HLA-A1+ patient with metastatic melanoma. These TILs recognized HLA-A1+WM983B cells. As targets, we used WM983B and WM983B-M6PR-KO cells. […] BRAFi sensitive and resistant WM983B cells were recognized by CTLs equally well (FIG. 8E). […] Herein was asked whether manipulation with expression of M6PR could affect expression of molecules associated with antigen presentation and regulation of immune responses by tumor cells. We evaluated expression of MHC class I, MHC class II, PDL1, and FasL on tumor cells with overexpression or deletion of M6PR.

WM983B-M6PR-KO cells [2] = assay: CTL assay (51Cr release), WM983B-M6PR-KO targets with TILs; conditions: WM983B-M6PR-KO treated ON with PLX4720
Method: (§1) For Chromium (^51Cr) release assays, 1×10^6 human melanoma cells were incubated with 100 μCi ^51Cr (Perkin-Elmer; Cat. no. NEZ030S001MC; 1 mCi/mL) at 37° C. for 60 minutes, washed 3 times with sterile PBS and plated into 96-well round-bottom plates at a cell density of 1×10^4 tumor target cells/well. Target cells were incubated with human CD8+ TILs in triplicates at the indicated effector/target ([…]) ratios in 200 μl culture medium at 37° C. in a humidified CO2 incubator. After incubation, plates were centrifuged, 50 μl supernatant was harvested from each well and ^51Cr release was measured using a gamma counter. The percent specific lysis was calculated as follows: 100×[(experimental release−spontaneous release)/(maximum release−spontaneous release)]. As controls, T cells isolated from blood of healthy donor were used.
(§2) To investigate if M6PR has a direct role in the increased uptake of GrzB induced by PLX4720, we generated a WM983B-M6PR-KO cell line lacking M6PR expression, using Crispr/Cas9 technology. Deletion of M6PR was confirmed by western blotting (FIG. 8A) and flow cytometry (FIG. 8B). WM983B and WM983B-M6PR-KO cells were cultured with DMSO or different concentrations of PLX4720. […] We evaluated expression of MHC class I, MHC class II, PDL1, and FasL on tumor cells with overexpression or deletion of M6PR.

M6PR = assay: Cell surface M6PR expression by flow cytometry in WM35 melanoma cells
Method: Human studies were approved by The Wistar Institute IRB. Peripheral blood was collected from healthy volunteers after obtaining informed consent. Animal experiments were approved by The Wistar Institute Animal Care and Use Committee. The mice were kept under pathogen free conditions. Experiments were carried out using female NSG mice or female and male nonobese diabetic/severe combined immunodeficient (NOD/SCID) mice, obtained from the mouse facility of the Wistar Institute and Charles River Laboratories, respectively. WM35 human melanoma and HLA-matched human tumor infiltrating lymphocytes (TIL) were generated at H. Lee Moffitt Cancer Center and Research Institute, Tampa, Fla., USA). […] Louis, Mo.) and 1% Pen/Strep (Corning; Cat. no. 30-002-Cl) at 37° C., 5% CO2. PLX4720-resistant cells were kept in cell culture media supplemented with 1 μM PLX4720 to keep these cells resistant against the drug. 350 μg/mL Hygromycin B (Invitrogen; […] Tumor cell lines were tested for mycoplasma contamination by using Universal Mycoplasma detection kit (ATCC) regularly. […] Cat. no. […] Cat. no. S2673). Hypoxia (0.5% 02) was maintained using hypoxic chamber (BioSpherix). […] Cells were incubated with Aqua dead cell staining kit (Thermo Fischer Scientific; Cat. no. […] Cat. no. 565105; clone no. MEM-238) or its isotype (BD Biosciences; Cat. no. 557732; clone no. […] Data was analyzed by FlowJo software (Tree Star).

WM983B cells = assay: CTL assay (51Cr release), WM983B targets with HLA-A1+ TILs; conditions: WM983B treated ON with PLX4720
Method: as §1, §2

CCCS(=O)(=O)Nc1ccc(F)c(C(=O)c2c[nH]c3ncc(Cl)cc23)c1F [PLX4720]
PLX4720-inducible GrzB uptake (WM983B-M6PR-KO cells [1]): up-regulation of GrzB uptake was abrogated | killing of tumor cells by TILs (WM983B-M6PR-KO cells [2]): this effect was not observed | M6PR on the cell surface (M6PR; 1 μM, 2.5, 5 or 10 μM PLX4720, within 6 hours): substantial dose-dependent up-regulation of M6PR on the cell surface | cell surface M6PR after overnight treatment (M6PR; overnight): M6PR up-regulation was confirmed | killing of tumor cells by TILs (WM983B cells): significantly (p<0.05) increased killing
